Key:
[1] = Toxicity in BALB/c mouse xenografted with human HeLa cells assessed as histopathological change in lung at 15 to 60 mg/kg,ip once daily for 14 days by hematoxylin and eosin staining analysis; type: organism-based; settings: in vivo, 336 h, dose 15-60 mg/kg, time 14 day
[2] = Acute toxicity in female BALB/c mouse assessed as animal death at 200 to 1000 mg/kg,ip observed for 4 to 15 days; type: organism-based; settings: in vivo, dose lower 200 mg/kg, time lower 4 day, dose upper 1000 mg/kg, time upper 15 day
[3] = Acute toxicity in male BALB/c mouse assessed as animal death at 200 to 1000 mg/kg,ip observed after 3 days; type: organism-based; settings: in vivo, 72 h, dose 200-1000 mg/kg, time 3 day
[4] = Acute toxicity in male BALB/c mouse assessed as animal death at 200 to 600 mg/kg,ip observed after 2 day; type: organism-based; settings: in vivo, 48 h, dose 200-600 mg/kg
[5] = Acute toxicity in male BALB/c mouse assessed as animal death at 200 to 400 mg/kg,ip observed after 1 day; type: organism-based; settings: in vivo, 24 h, dose 200-400 mg/kg
[6] = Acute toxicity in female BALB/c mouse assessed as animal death at 1000 mg/kg,ip observed after 2 day; type: organism-based; settings: in vivo, 48 h
[7] = test system: PANC-1; experiment: Antiproliferative activity against human PANC-1 cells assessed as inhibition of cell growth incubated for 48 hrs by CCK-8 assay; type: functional, cell-based; settings: panc-1
[8] = Acute toxicity in female BALB/c mouse assessed as animal death at 200 to 400 mg/kg,ip observed after 1 day; type: organism-based; settings: in vivo, 24 h, dose 200-400 mg/kg
[9] = Acute toxicity in BALB/c mouse assessed as animal survival at 1000 mg/kg,ip observed after 14 days; type: organism-based; settings: in vivo, time 14 day
[10] = Acute toxicity in BALB/c mouse assessed as animal survival at 400 mg/kg,ip observed after 14 days; type: organism-based; settings: in vivo, time 14 day
[11] = test system: HepG2; experiment: Antiproliferative activity against human HepG2 cells assessed as inhibition of cell growth incubated for 48 hrs by CCK-8 assay; type: functional, cell-based; settings: Homo sapiens, HepG2, 48 h
[12] = Toxicity in BALB/c mouse xenografted with human HeLa cells assessed as histopathological change in kidney at 15 to 60 mg/kg,ip once daily for 14 days by hematoxylin and eosin staining analysis; type: organism-based; settings: in vivo, 336 h, dose 15-60 mg/kg, time 14 day
[13] = Acute toxicity in BALB/c mouse assessed as lethal dose at ip administration observed after 14 days; type: organism-based; settings: in vivo, time 14 day
[14] = Acute toxicity in female BALB/c mouse assessed as animal death at 200 to 1000 mg/kg,ip observed after 3 days; type: organism-based; settings: in vivo, 72 h, dose 200-1000 mg/kg, time 3 day
[15] = Acute toxicity in BALB/c mouse assessed as animal survival at 800 mg/kg,ip observed after 14 days; type: organism-based; settings: in vivo, time 14 day
[16] = test system: A549; experiment: Antiproliferative activity against human A549 cells assessed as inhibition of cell growth incubated for 48 hrs by CCK-8 assay; type: functional, cell-based; settings: Homo sapiens, A549, 48 h
[17] = Toxicity in BALB/c mouse xenografted with human HeLa cells assessed as change in body weight at 15 to 60 mg/kg,ip once daily for 14 days; type: organism-based; settings: in vivo, 336 h, dose 15-60 mg/kg, time 14 day
[18] = Half life in BALB/c mouse plasma at 10 to 200 uM; type: ADME, cell-free; settings: dose 10-200 µM
[19] = test system: HCT-116; experiment: Antiproliferative activity against human HCT-116 cells assessed as inhibition of cell growth incubated for 48 hrs by CCK-8 assay; type: functional, cell-based; settings: Homo sapiens, HCT-116, 48 h
[20] = test system: MCF7; experiment: Antiproliferative activity against human MCF7 cells assessed as inhibition of cell growth incubated for 48 hrs by CCK-8 assay; type: functional, cell-based; settings: Homo sapiens, MCF7, 48 h
[21] = test system: HeLa; experiment: Antiproliferative activity against human HeLa cells assessed as inhibition of cell growth incubated for 48 hrs by CCK-8 assay; type: functional, cell-based; settings: hela
[22] = Toxicity in BALB/c mouse xenografted with human HeLa cells assessed as histopathological change in heart at 15 to 60 mg/kg,ip once daily for 14 days by hematoxylin and eosin staining analysis; type: organism-based; settings: in vivo, 336 h, dose 15-60 mg/kg, time 14 day
[23] = Acute toxicity in female BALB/c mouse assessed as animal death at 200 to 600 mg/kg,ip observed after 2 day; type: organism-based; settings: in vivo, 48 h, dose 200-600 mg/kg
[24] = Acute toxicity in BALB/c mouse assessed as animal survival at 200 mg/kg,ip observed after 14 days; type: organism-based; settings: in vivo, time 14 day
[25] = Toxicity in BALB/c mouse xenografted with human HeLa cells assessed as histopathological change in liver at 15 to 60 mg/kg,ip once daily for 14 days by hematoxylin and eosin staining analysis; type: organism-based; settings: in vivo, 336 h, dose 15-60 mg/kg, time 14 day
[26] = test system: HeLa; experiment: Induction of apoptosis in human HeLa cells at 2 to 8 uM incubated for 48 hrs by annexin V-FITC/PI staining based flow cytometry relative to control; type: functional; settings: dose 2-8 µM
[27] = Acute toxicity in BALB/c mouse assessed as animal survival at 600 mg/kg,ip observed after 14 days; type: organism-based; settings: in vivo, time 14 day
[28] = Toxicity in BALB/c mouse xenografted with human HeLa cells assessed as histopathological change in spleen at 15 to 60 mg/kg,ip once daily for 14 days by hematoxylin and eosin staining analysis; type: organism-based; settings: in vivo, 336 h, dose 15-60 mg/kg, time 14 day
[29] = Acute toxicity in male BALB/c mouse assessed as animal death at 200 to 1000 mg/kg,ip observed for 4 to 15 days; type: organism-based; settings: in vivo, dose lower 200 mg/kg, time lower 4 day, dose upper 1000 mg/kg, time upper 15 day

CCOC(=O)C[C@H]1CSC[C@]1(C(=O)OCC)n1cnc2c(Cl)nc(Cl)nc21 (racemic)
Activity [1]: Non-Toxic | Activity [2]: Non-Toxic | Activity [3]: Non-Toxic | Activity [4]: Non-Toxic | Activity [5]: Non-Toxic | Activity [6]: Non-Toxic | IC50 [7]: 13 µM | Activity [8]: Non-Toxic | survival at 336 h [9]: 0% | survival at 336 h [10]: 100% | IC50 [11]: 32.7 µM | Activity [12]: Non-Toxic | LD50 at 336 h [13]: 613 mg/kg | Activity [14]: Non-Toxic | survival at 336 h [15]: 10% | IC50 [16]: 46 µM | Activity [17]: Non-Toxic | half-life at up to 200 µM [18]: 3 h | IC50 [19]: 3.82 µM | IC50 [20]: 5.54 µM | IC50 [21]: 2.8 µM | Activity [22]: Non-Toxic | Activity [23]: Non-Toxic | survival at 336 h [24]: 100% | Activity [25]: Non-Toxic | Activity [26]: 8.05% | survival at 336 h [27]: 50% | Activity [28]: Non-Toxic | Activity [29]: Non-Toxic

Reference: ChEMBL document CHEMBL5523757, “Discovery, Synthesis, and Activity Evaluation of Novel Five-Membered Sulfur-Containing Heterocyclic Nucleosides as Potential Anticancer Agents In Vitro and In Vivo” (J Med Chem, 2024)
